Experimental data from paper PMC5218480 (PLoS ONE, 2017).

Test system: MV-4-11 cells
Experiment: Gene expression microarray analysis (Affymetrix PrimeView) and GSEA
Type: cell-based, human
Parameters: RFU PODN (11730768_x_at) / Fold change /veh PODN (11730768_x_at) / RFU LINC00158 (11744669_a_at) / Fold change /veh LINC00158 (11744669_a_at) / RFU DUSP10 (11751237_a_at) / Fold change /veh DUSP10 (11751237_a_at) / RFU ID3 (11757404_x_at) / Fold change /veh ID3 (11757404_x_at) / RFU PLEKHG5 (11737974_s_at) / Fold change /veh PLEKHG5 (11737974_s_at) / RFU LRRC4B (11730491_at) / Fold change /veh LRRC4B (11730491_at) / RFU GIMAP4 (11747438_a_at) / Fold change /veh GIMAP4 (11747438_a_at) / RFU KRT8 (11758183_x_at) / Fold change /veh KRT8 (11758183_x_at) / RFU CNN1 (11734310_a_at) / Fold change /veh CNN1 (11734310_a_at) / RFU VPS37D (11726825_at) / Fold change /veh VPS37D (11726825_at) / RFU C10orf10 (11716522_x_at) / Fold change /veh C10orf10 (11716522_x_at) / RFU KIR2DL2 /// KIR2DL4 /// KIR2DL5A /// KIR2DL5B /// KIR2DS1 /// KIR2DS2 /// KIR2DS3 /// KIR2DS4 /// KIR3DL3 /// KIR3DL3 /// KIR3DS1 (11738374_at) / Fold change /veh KIR2DL2 /// KIR2DL4 /// KIR2DL5A /// KIR2DL5B /// KIR2DS1 /// KIR2DS2 /// KIR2DS3 /// KIR2DS4 /// KIR3DL3 /// KIR3DL3 /// KIR3DS1 (11738374_at) / RFU C1QL1 (11718748_at) / Fold change /veh C1QL1 (11718748_at) / RFU TMPRSS4 (11747572_a_at) / Fold change /veh TMPRSS4 (11747572_a_at) / RFU HAMP (11756126_x_at) / Fold change /veh HAMP (11756126_x_at) / RFU RNFT2 (11725882_a_at) / Fold change /veh RNFT2 (11725882_a_at) / RFU NR4A2 (11747474_a_at) / Fold change /veh NR4A2 (11747474_a_at) / RFU ABCC12 (11746883_a_at) / Fold change /veh ABCC12 (11746883_a_at) / RFU TMEM136 (11760407_x_at) / Fold change /veh TMEM136 (11760407_x_at) / RFU CLDN22 /// WWC2 (11732394_at) / Fold change /veh CLDN22 /// WWC2 (11732394_at) / RFU HLA-DPB1 (11760878_x_at) / Fold change /veh HLA-DPB1 (11760878_x_at) / RFU SPINT1 (11716480_a_at) / Fold change /veh SPINT1 (11716480_a_at) / RFU GAP43 (11754022_s_at) / Fold change /veh GAP43 (11754022_s_at) / RFU A4GNT (11735810_at) / Fold change /veh A4GNT (11735810_at) / RFU PRB3 (11715151_x_at) / Fold change /veh PRB3 (11715151_x_at) / RFU TUBB4B (11761932_at) / Fold change /veh TUBB4B (11761932_at) / RFU CAPN14 (11732068_a_at) / Fold change /veh CAPN14 (11732068_a_at) / RFU TMCC2 (11721928_a_at) / Fold change /veh TMCC2 (11721928_a_at) / RFU IRGQ (11745062_a_at) / Fold change /veh IRGQ (11745062_a_at) / RFU FAM174B (11720279_a_at) / Fold change /veh FAM174B (11720279_a_at) / RFU TMPRSS4 (11748680_a_at) / Fold change /veh TMPRSS4 (11748680_a_at) / RFU FAM212B (11763350_a_at) / Fold change /veh FAM212B (11763350_a_at) / RFU PLEKHG5 (11743358_a_at) / Fold change /veh PLEKHG5 (11743358_a_at) / RFU ZSCAN30 (11745921_a_at) / Fold change /veh ZSCAN30 (11745921_a_at) / RFU CMKLR1 (11741424_a_at) / Fold change /veh CMKLR1 (11741424_a_at) / RFU LOC101060620 /// MAPK8IP1 (11723275_at) / Fold change /veh LOC101060620 /// MAPK8IP1 (11723275_at) / RFU SPTSSB (11747773_x_at) / Fold change /veh SPTSSB (11747773_x_at) / RFU PRSS12 (11739890_at) / Fold change /veh PRSS12 (11739890_at) / RFU BIN1 (11741810_x_at) / Fold change /veh BIN1 (11741810_x_at) / RFU WNT11 (11732464_a_at) / Fold change /veh WNT11 (11732464_a_at) / RFU C10orf10 (11716521_a_at) / Fold change /veh C10orf10 (11716521_a_at) / RFU C5orf56 (11738089_at) / Fold change /veh C5orf56 (11738089_at) / RFU CYB561 (11721691_x_at) / Fold change /veh CYB561 (11721691_x_at) / RFU ANKRD19P (11752326_a_at) / Fold change /veh ANKRD19P (11752326_a_at) / RFU OR2T12 /// OR2T33 /// OR2T8 (11738714_s_at) / Fold change /veh OR2T12 /// OR2T33 /// OR2T8 (11738714_s_at) / RFU VCAN (11748164_a_at) / Fold change /veh VCAN (11748164_a_at) / RFU JSRP1 (11732532_at) / Fold change /veh JSRP1 (11732532_at) / RFU KRTAP10-11 (11738290_x_at) / Fold change /veh KRTAP10-11 (11738290_x_at) / RFU MYO3A (11730013_a_at) / Fold change /veh MYO3A (11730013_a_at) / RFU EBF3 (11725865_a_at) / Fold change /veh EBF3 (11725865_a_at) / RFU CAMK2N1 (11719241_x_at) / Fold change /veh CAMK2N1 (11719241_x_at) / RFU C5orf56 (11738088_a_at) / Fold change /veh C5orf56 (11738088_a_at) / RFU OLFML3 (11715873_a_at) / Fold change /veh OLFML3 (11715873_a_at) / RFU LOC100653217 /// NTM (11731650_a_at) / Fold change /veh LOC100653217 /// NTM (11731650_a_at) / RFU MAPK11 (11762145_a_at) / Fold change /veh MAPK11 (11762145_a_at) / RFU FIZ1 (11724087_x_at) / Fold change /veh FIZ1 (11724087_x_at) / RFU OASL (11726364_x_at) / Fold change /veh OASL (11726364_x_at) / RFU SOX15 (11748057_x_at) / Fold change /veh SOX15 (11748057_x_at) / RFU CD79A (11719716_a_at) / Fold change /veh CD79A (11719716_a_at) / RFU HIST1H1D (11736915_at) / Fold change /veh HIST1H1D (11736915_at) / RFU CASKIN2 (11723855_a_at) / Fold change /veh CASKIN2 (11723855_a_at) / RFU LOC730098 (11760151_x_at) / Fold change /veh LOC730098 (11760151_x_at) / RFU OR4N2 (11742367_at) / Fold change /veh OR4N2 (11742367_at) / RFU PRRT2 (11749266_a_at) / Fold change /veh PRRT2 (11749266_a_at) / RFU SNX32 (11753110_a_at) / Fold change /veh SNX32 (11753110_a_at) / RFU CDHR5 (11726645_a_at) / Fold change /veh CDHR5 (11726645_a_at) / RFU RCAN1 (11760418_a_at) / Fold change /veh RCAN1 (11760418_a_at) / RFU FAM167A (11723789_a_at) / Fold change /veh FAM167A (11723789_a_at) / RFU FAM26E (11764081_at) / Fold change /veh FAM26E (11764081_at) / RFU ISYNA1 (11749810_s_at) / Fold change /veh ISYNA1 (11749810_s_at) / RFU ACY1 (11761880_at) / Fold change /veh ACY1 (11761880_at) / RFU 11764098_at / Fold change /veh 11764098_at / RFU SAMD14 (11745864_x_at) / Fold change /veh SAMD14 (11745864_x_at) / RFU NPB (11741838_a_at) / Fold change /veh NPB (11741838_a_at) / RFU TMPRSS6 (11731388_a_at) / Fold change /veh TMPRSS6 (11731388_a_at) / RFU KRTAP10-2 (11738614_at) / Fold change /veh KRTAP10-2 (11738614_at) / RFU ARHGAP8 /// PRR5-ARHGAP8 (11727945_x_at) / Fold change /veh ARHGAP8 /// PRR5-ARHGAP8 (11727945_x_at) / RFU KRTAP5-7 /// NADSYN1 (11734609_at) / Fold change /veh KRTAP5-7 /// NADSYN1 (11734609_at) / RFU RASL12 (11751679_a_at) / Fold change /veh RASL12 (11751679_a_at) / RFU CDKN2B (11736163_a_at) / Fold change /veh CDKN2B (11736163_a_at) / RFU PRF1 (11729649_at) / Fold change /veh PRF1 (11729649_at) / RFU, ZNF638 /// ZNF638-IT1 / Fold change vs veh, ZNF638 /// ZNF638-IT1 / RFU, PANK3 / Fold change vs veh, PANK3 / RFU, SH3YL1 / Fold change vs veh, SH3YL1 / RFU, ZEB2 / Fold change vs veh, ZEB2 / RFU, NRIP1 / Fold change vs veh, NRIP1 / RFU, PTTG1IP / Fold change vs veh, PTTG1IP / RFU, CAPN2 / Fold change vs veh, CAPN2 / RFU, MED14 / Fold change vs veh, MED14 / RFU, SNORA58 / Fold change vs veh, SNORA58 / RFU, C1orf63 / Fold change vs veh, C1orf63 / RFU, LRRFIP1 / Fold change vs veh, LRRFIP1 / RFU, NDUFAF7 / Fold change vs veh, NDUFAF7 / RFU, SLC12A2 / Fold change vs veh, SLC12A2 / RFU, IBTK / Fold change vs veh, IBTK / RFU, ESF1 / Fold change vs veh, ESF1 / Fold change vs veh, TMEM50B / RFU, TAOK1 / Fold change vs veh, TAOK1 / RFU, ACBD3 / Fold change vs veh, ACBD3 / RFU, TMA16 / Fold change vs veh, TMA16 / RFU, RWDD3 / Fold change vs veh, RWDD3 / RFU, BCAT1 / Fold change vs veh, BCAT1 / RFU, EDEM3 / Fold change vs veh, EDEM3 / RFU, TMEM33 / Fold change vs veh, TMEM33 / RFU, WDR75 / Fold change vs veh, WDR75 / RFU, AHCTF1 / Fold change vs veh, AHCTF1 / RFU, TFRC / Fold change vs veh, TFRC / RFU, ZDHHC17 / Fold change vs veh, ZDHHC17 / RFU, NOM1 / Fold change vs veh, NOM1 / RFU, ARL8B / Fold change vs veh, ARL8B / RFU, ZBTB11 / Fold change vs veh, ZBTB11 / RFU, TAMM41 / Fold change vs veh, TAMM41 / RFU, KIAA1704 /// LOC100996395 / Fold change vs veh, KIAA1704 /// LOC100996395 / RFU, ING1 / Fold change vs veh, ING1 / RFU, TRMT61B / Fold change vs veh, TRMT61B / RFU, FUBP3 / Fold change vs veh, FUBP3 / RFU, TP53 / Fold change vs veh, TP53 / RFU, TNKS2 / Fold change vs veh, TNKS2 / RFU, ZFP14 / Fold change vs veh, ZFP14 / RFU, ACTR2 / Fold change vs veh, ACTR2 / RFU, PPP3R1 / Fold change vs veh, PPP3R1 / RFU, PIK3R1 / Fold change vs veh, PIK3R1 / RFU, HNRNPA1 / Fold change vs veh, HNRNPA1 / RFU, RNF170 / Fold change vs veh, RNF170 / RFU, ZNF28 / Fold change vs veh, ZNF28 / RFU, RNGTT / Fold change vs veh, RNGTT / RFU, OGT / Fold change vs veh, OGT / RFU, BRD1 / Fold change vs veh, BRD1 / RFU, MARS / Fold change vs veh, MARS / RFU, ZNF655 / Fold change vs veh, ZNF655 / RFU, FAHD1 / Fold change vs veh, FAHD1 / RFU, BDP1 / Fold change vs veh, BDP1 / RFU, LRRCC1 / Fold change vs veh, LRRCC1 / RFU, ARID1A / Fold change vs veh, ARID1A / RFU, ZNF146 / Fold change vs veh, ZNF146 / RFU, ZNF330 / Fold change vs veh, ZNF330 / RFU, GPN3 / Fold change vs veh, GPN3 / RFU, C9orf123 / Fold change vs veh, C9orf123 / RFU, N4BP2L2 / Fold change vs veh, N4BP2L2 / RFU, ARFIP1 / Fold change vs veh, ARFIP1 / RFU, FAM179B / Fold change vs veh, FAM179B / RFU, BCL10 / Fold change vs veh, BCL10 / RFU, UHRF1BP1L / Fold change vs veh, UHRF1BP1L / RFU, BET1 / Fold change vs veh, BET1 / RFU, CNOT2 / Fold change vs veh, CNOT2 / RFU, ZNF268 / Fold change vs veh, ZNF268 / Fold change vs veh, ZNF507 / RFU, DGCR2 / Fold change vs veh, DGCR2 / RFU, WDSUB1 / Fold change vs veh, WDSUB1 / Fold change vs veh, HSP90B1 /// MIR3652 / RFU, ADSS / Fold change vs veh, ADSS / RFU, GK / Fold change vs veh, GK / RFU, ZNF148 / Fold change vs veh, ZNF148 / RFU, TAF9 / Fold change vs veh, TAF9 / RFU, SLC1A5 / Fold change vs veh, SLC1A5 / RFU, SLMO2 / Fold change vs veh, SLMO2 / RFU, ABCC4 / Fold change vs veh, ABCC4 / RFU, LOC101060439 /// RAP1B / Fold change vs veh, LOC101060439 /// RAP1B / RFU, RFX7 / Fold change vs veh, RFX7 / RFU, GTPBP10 / Fold change vs veh, GTPBP10 / RFU, CNEP1R1 / Fold change vs veh, CNEP1R1 / RFU, BIVM-ERCC5 /// ERCC5 / Fold change vs veh, BIVM-ERCC5 /// ERCC5 / RFU, ILF3 / Fold change vs veh, ILF3 / RFU 11762660_at / Fold change /veh 11762660_at / RFU VCAN (11757783_s_at) / Fold change /veh VCAN (11757783_s_at) / RFU DDX43 (11728927_at) / Fold change /veh DDX43 (11728927_at) / RFU KRT8 (11758188_x_at) / Fold change /veh KRT8 (11758188_x_at) / RFU NKD1 (11759106_at) / Fold change /veh NKD1 (11759106_at) / RFU SRD5A1 (11742802_a_at) / Fold change /veh SRD5A1 (11742802_a_at) / RFU TPSAB1 /// TPSB2 (11721975_s_at) / Fold change /veh TPSAB1 /// TPSB2 (11721975_s_at) / RFU GSTM3 (11746129_a_at) / Fold change /veh GSTM3 (11746129_a_at) / RFU IL23R (11737362_x_at) / Fold change /veh IL23R (11737362_x_at) / RFU TMEM51 (11727254_a_at) / Fold change /veh TMEM51 (11727254_a_at) / RFU PIWIL2 (11732686_x_at) / Fold change /veh PIWIL2 (11732686_x_at) / RFU ORM1 (11744905_x_at) / Fold change /veh ORM1 (11744905_x_at) / RFU CCDC152 (11743942_at) / Fold change /veh CCDC152 (11743942_at) / RFU ECM1 (11717891_a_at) / Fold change /veh ECM1 (11717891_a_at) / RFU IL23R (11748794_a_at) / Fold change /veh IL23R (11748794_a_at) / RFU TNFAIP8L3 (11732012_x_at) / Fold change /veh TNFAIP8L3 (11732012_x_at) / RFU MBOAT4 (11741988_at) / Fold change /veh MBOAT4 (11741988_at) / RFU 11764193_at / Fold change /veh 11764193_at / RFU TMEM53 (11763286_at) / Fold change /veh TMEM53 (11763286_at) / RFU MAGEB2 (11727129_at) / Fold change /veh MAGEB2 (11727129_at) / RFU TMEM200A (11744735_a_at) / Fold change /veh TMEM200A (11744735_a_at) / RFU CCDC152 (11751479_a_at) / Fold change /veh CCDC152 (11751479_a_at) / RFU FAM211A (11726209_a_at) / Fold change /veh FAM211A (11726209_a_at) / RFU RGS16 (11746705_a_at) / Fold change /veh RGS16 (11746705_a_at) / RFU VCAN (11755009_s_at) / Fold change /veh VCAN (11755009_s_at) / RFU RHOB (11743442_s_at) / Fold change /veh RHOB (11743442_s_at) / RFU RGS16 (11720943_a_at) / Fold change /veh RGS16 (11720943_a_at) / RFU RGS16 (11720944_at) / Fold change /veh RGS16 (11720944_at) / RFU, VPS4B / Fold change vs veh, VPS4B / RFU, CREB1 / Fold change vs veh, CREB1 / RFU, DNAJC13 / Fold change vs veh, DNAJC13 / RFU, GNAQ / Fold change vs veh, GNAQ / RFU, CDK5R1 / Fold change vs veh, CDK5R1 / RFU, ZRANB3 / Fold change vs veh, ZRANB3 / RFU, CUL4A / Fold change vs veh, CUL4A / RFU, CCNY / Fold change vs veh, CCNY / RFU, UFL1 / Fold change vs veh, UFL1 / RFU, COG3 / Fold change vs veh, COG3 / RFU, DIAPH2 / Fold change vs veh, DIAPH2 / RFU, SKA2 / Fold change vs veh, SKA2 / RFU, AFF3 / Fold change vs veh, AFF3 / RFU, LMF1 / Fold change vs veh, LMF1 / RFU, IPO11 / Fold change vs veh, IPO11 / RFU, DFFB / Fold change vs veh, DFFB / RFU, FOXP1 / Fold change vs veh, FOXP1 / RFU, CARD8 / Fold change vs veh, CARD8 / RFU, STRN3 / Fold change vs veh, STRN3 / RFU, ADK / Fold change vs veh, ADK / RFU, RASSF2 / Fold change vs veh, RASSF2 / RFU, WIPF1 / Fold change vs veh, WIPF1 / RFU, LARP1B / Fold change vs veh, LARP1B / RFU, RASA1 / Fold change vs veh, RASA1 / RFU, RB1 / Fold change vs veh, RB1 / RFU, PPFIA1 / Fold change vs veh, PPFIA1 / RFU, MAT2A / Fold change vs veh, MAT2A / RFU, CCT5 / Fold change vs veh, CCT5 / RFU, WDR92 / Fold change vs veh, WDR92 / RFU, CUX1 / Fold change vs veh, CUX1 / RFU, TTC7A / Fold change vs veh, TTC7A / RFU, TMEM135 / Fold change vs veh, TMEM135 / RFU, DEPTOR / Fold change vs veh, DEPTOR / RFU, CPM / Fold change vs veh, CPM / RFU, DNAJB6 / Fold change vs veh, DNAJB6 / RFU, CACNA2D3 / Fold change vs veh, CACNA2D3 / RFU, DTX4 / Fold change vs veh, DTX4 / RFU, TFCP2 / Fold change vs veh, TFCP2 / RFU, GMCL1 /// GMCL1P1 / Fold change vs veh, GMCL1 /// GMCL1P1 / RFU, AEBP2 / Fold change vs veh, AEBP2 / RFU, SNHG1 /// SNORD22 /// SNORD25 /// SNORD26 /// SNORD27 /// SNORD28 /// SNORD29 /// SNORD31 / Fold change vs veh, SNHG1 /// SNORD22 /// SNORD25 /// SNORD26 /// SNORD27 /// SNORD28 /// SNORD29 /// SNORD31 / Fold change (Aza/veh), C12orf56 (ProbeSet 11735607_a_at) / Fold change (ACY-1035/veh), C12orf56 (ProbeSet 11735607_a_at) / Fold change (Aza/veh), FGFR1OP (ProbeSet 11751329_s_at) / Fold change (ACY-1035/veh), FGFR1OP (ProbeSet 11751329_s_at) / Fold change (Aza/veh), VPS36 (ProbeSet 11739960_a_at) / Fold change (ACY-1035/veh), VPS36 (ProbeSet 11739960_a_at) / RFU SYPL1 (11715823_x_at) / Fold change /veh SYPL1 (11715823_x_at) / RFU IGFBP7 (11715501_s_at) / Fold change /veh IGFBP7 (11715501_s_at) / RFU REEP3 (11722064_at) / Fold change /veh REEP3 (11722064_at) / RFU IGLL1 (11728026_x_at) / Fold change /veh IGLL1 (11728026_x_at): dose or concentration left out as unconfirmed
Conditions: ProbeSet 11743929_at; LIST B

With `Nc1ncn([C@@H]2O[C@H](CO)[C@@H](O)[C@H]2O)c(=O)n1` [azacitidine] the “RFU, UHRF1BP1L” value was 257.64 RFU.
